Measured values reported in patent publication US10377753B2, “Substituted 4-azaindoles and their use as GluN2B receptor modulators” (Janssen Pharmaceutica NV, priority 2015, dated 2019).

Target: cloned human NR1/NR2B ion channels (Homo sapiens (Human), UniProt Q05586+Q13224)
Assay: HNR2BC: effects of test articles on cloned human NR1/NR2B ion channels expressed in mammalian cells (FLIPR calcium flux)
Type: cell-based
Conditions: cloned human NR1/NR2B ion channels, Table 5
Outline: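 In a stable Tet-On-induced cell line expressing human GluN1/GluN2B, Calcium 5-loaded cells were preincubated 5 min with compound, then stimulated 5 min with glutamate at ~EC80 plus 10 μM glycine, in pH 7.4 HEPES buffer. FLIPR calcium fluorescence was normalized to control wells.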

Chain of cloned human NR1/NR2B ion channels (Q13224 27-1484, other chains not shown): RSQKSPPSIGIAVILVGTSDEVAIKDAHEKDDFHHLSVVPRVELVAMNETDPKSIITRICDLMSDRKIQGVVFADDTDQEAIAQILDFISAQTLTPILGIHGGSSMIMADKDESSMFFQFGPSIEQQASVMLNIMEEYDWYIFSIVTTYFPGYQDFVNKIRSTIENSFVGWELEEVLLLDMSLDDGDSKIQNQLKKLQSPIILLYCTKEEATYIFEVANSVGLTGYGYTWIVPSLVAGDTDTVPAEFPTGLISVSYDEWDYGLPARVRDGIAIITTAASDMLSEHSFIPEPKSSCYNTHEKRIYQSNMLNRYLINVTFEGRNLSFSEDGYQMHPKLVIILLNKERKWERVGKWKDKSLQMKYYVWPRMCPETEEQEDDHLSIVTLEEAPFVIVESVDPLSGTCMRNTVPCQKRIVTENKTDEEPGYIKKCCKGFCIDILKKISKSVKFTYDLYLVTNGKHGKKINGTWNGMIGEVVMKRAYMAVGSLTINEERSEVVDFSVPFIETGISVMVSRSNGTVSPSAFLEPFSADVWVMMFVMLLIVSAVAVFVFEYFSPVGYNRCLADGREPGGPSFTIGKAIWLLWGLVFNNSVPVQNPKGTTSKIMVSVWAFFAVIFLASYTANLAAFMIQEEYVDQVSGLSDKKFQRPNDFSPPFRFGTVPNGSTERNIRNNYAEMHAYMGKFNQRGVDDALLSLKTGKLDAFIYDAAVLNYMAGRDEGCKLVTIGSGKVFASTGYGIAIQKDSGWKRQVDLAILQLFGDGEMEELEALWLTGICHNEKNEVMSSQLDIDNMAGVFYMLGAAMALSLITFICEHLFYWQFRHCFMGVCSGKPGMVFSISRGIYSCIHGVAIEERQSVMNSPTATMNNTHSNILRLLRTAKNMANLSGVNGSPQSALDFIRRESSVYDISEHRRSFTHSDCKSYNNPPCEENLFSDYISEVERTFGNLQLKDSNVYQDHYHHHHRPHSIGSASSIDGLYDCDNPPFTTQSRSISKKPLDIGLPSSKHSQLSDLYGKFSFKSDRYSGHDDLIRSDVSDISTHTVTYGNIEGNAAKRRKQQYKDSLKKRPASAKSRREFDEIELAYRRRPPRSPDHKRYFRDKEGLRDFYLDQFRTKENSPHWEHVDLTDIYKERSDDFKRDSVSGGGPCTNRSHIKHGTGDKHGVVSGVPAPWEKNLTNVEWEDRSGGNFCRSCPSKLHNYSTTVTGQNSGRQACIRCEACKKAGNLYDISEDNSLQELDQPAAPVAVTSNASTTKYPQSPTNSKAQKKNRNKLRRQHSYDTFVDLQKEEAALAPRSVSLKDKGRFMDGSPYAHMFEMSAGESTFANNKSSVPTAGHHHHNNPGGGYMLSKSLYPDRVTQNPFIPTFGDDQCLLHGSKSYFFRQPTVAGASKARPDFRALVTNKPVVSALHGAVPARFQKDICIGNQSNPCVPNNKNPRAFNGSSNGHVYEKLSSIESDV

| Structure (SMILES) | IC50 |
| --- | --- |
| Cc1cn(CC(=O)N2CCCC2)c2cc(-c3cccc(C(F)(F)F)c3)cnc12 [Example 567, 2-[3-Methyl-6-[3-(trifluoromethyl)phenyl]pyrrolo[3,2-b]pyridin-1-yl]-1-pyrrolidin-1-yl-ethanone] | 200 nM |
| Cc1cn(CC(=O)N2CC(F)(F)C2)c2cc(-c3cccc(C(F)(F)F)c3)cnc12 [Example 569, 1-(3,3-Difluoroazetidin-1-yl)-2-[3-methyl-6-[3-(trifluoromethyl)phenyl]pyrrolo[3,2-b]pyridin-1-yl]ethanone] | 398 nM |
| Cc1cn(CC(=O)N2CCC2)c2cc(-c3cc(F)c(F)c(F)c3)cnc12 [Example 570, 1-(Azetidin-1-yl)-2-[3-methyl-6-(3,4,5-trifluorophenyl)pyrrolo[3,2-b]pyridin-1-yl]ethanone] | 63.1 nM |
| Cc1csc(-c2cnc3c(C)cn(CC(=O)N4CCC4)c3c2)c1 [Example 574, 1-(Azetidin-1-yl)-2-[3-methyl-6-(4-methyl-2-thienyl)pyrrolo[3,2-b]pyridin-1-yl]ethanone] | 79.4 nM |
| Cc1csc(-c2cnc3c(C)cn(CC(=O)N4CC(F)C4)c3c2)c1 [Example 575, 1-(3-Fluoroazetidin-1-yl)-2-[3-methyl-6-(4-methyl-2-thienyl)pyrrolo[3,2-b]pyridin-1-yl]ethanone] | 79.4 nM |
| Cc1cc(-c2cnc3c(C)cn(CC(=O)N4CC(F)C4)c3c2)ccc1F [Example 580, 1-(3-Fluoroazetidin-1-yl)-2-[6-(4-fluoro-3-methyl-phenyl)-3-methyl-pyrrolo[3,2-b]pyridin-1-yl]ethanone] | 79.4 nM |
| Cc1cn(CC(=O)N2CCC2)c2cc(-c3ccc(F)c(F)c3F)cnc12 [Example 582, 1-(Azetidin-1-yl)-2-[3-methyl-6-(2,3,4-trifluorophenyl)pyrrolo[3,2-b]pyridin-1-yl]ethanone] | 39.8 nM |
| Cc1cn(CC(=O)N2CCC2)c2cc(-c3cccc(C(F)(F)F)c3F)cnc12 [Example 585, 1-(Azetidin-1-yl)-2-[6-[2-fluoro-3-(trifluoromethyl)phenyl]-3-methyl-pyrrolo[3,2-b]pyridin-1-yl]ethanone] | 251 nM |
| Cc1cn(CC(=O)N2CC(F)C2)c2cc(-c3ccc(F)c(F)c3F)cnc12 [Example 588, 1-(3-Fluoroazetidin-1-yl)-2-[3-methyl-6-(2,3,4-trifluorophenyl)pyrrolo[3,2-b]pyridin-1-yl]ethanone] | 631 nM |
| Cc1cn(CC(=O)N2CC(F)C2)c2cc(-c3cccc(C(F)(F)F)c3F)cnc12 [Example 589, 1-(3-Fluoroazetidin-1-yl)-2-[6-[2-fluoro-3-(trifluoromethyl)phenyl]-3-methyl-pyrrolo[3,2-b]pyridin-1-yl]ethanone] | 126 nM |
| Cc1cn(CC(=O)N2CCCC2)c2cc(-c3cccc(C(F)(F)F)c3F)cnc12 [Example 590, 2-[6-[2-Fluoro-3-(trifluoromethyl)phenyl]-3-methyl-pyrrolo[3,2-b]pyridin-1-yl]-1-pyrrolidin-1-yl-ethanone] | 316 nM |
| Cc1cn(CC(=O)N2CCCC2)c2cc(-c3ccc(F)c(F)c3F)cnc12 [Example 591, 2-[3-Methyl-6-(2,3,4-trifluorophenyl)pyrrolo[3,2-b]pyridin-1-yl]-1-pyrrolidin-1-yl-ethanone] | 126 nM |
| Cc1cn(CC(=O)N2CC(F)(F)C2)c2cc(-c3cccc(C(F)(F)F)c3F)cnc12 [Example 595, 1-(3,3-Difluoroazetidin-1-yl)-2-[6-[2-fluoro-3-(trifluoromethyl)phenyl]-3-methyl-pyrrolo[3,2-b]pyridin-1-yl]ethanone] | 251 nM |
| Cc1cn(CC(=O)N2CC(F)(F)C2)c2cc(-c3ccc(F)c(F)c3F)cnc12 [Example 596, 1-(3,3-Difluoroazetidin-1-yl)-2-[3-methyl-6-(2,3,4-trifluorophenyl)pyrrolo[3,2-b]pyridin-1-yl]ethanone] | 50.1 nM |
| Cc1cn(CC(=O)N2CC(F)(F)C2)c2cc(-c3ccccc3F)cnc12 [Example 597, 1-(3,3-Difluoroazetidin-1-yl)-2-[6-(2-fluorophenyl)-3-methyl-pyrrolo[3,2-b]pyridin-1-yl]ethanone] | 316 nM |
| Cc1cn(CC(=O)N2CC(F)C2)c2cc(-c3cc(F)c(F)c(F)c3)cnc12 [Example 598, 1-(3-Fluoroazetidin-1-yl)-2-[3-methyl-6-(3,4,5-trifluorophenyl)pyrrolo[3,2-b]pyridin-1-yl]ethanone] | 39.8 nM |
| Cc1cc(-c2cnc3c(Cl)cn(CC(=O)N(C)C)c3c2)c(C)s1 [Example 599, 2-[3-Chloro-6-(2,5-dimethyl-3-thienyl)pyrrolo[3,2-b]pyridin-1-yl]-N,N-dimethyl-acetamide] | 100 nM |
| CN(C)C(=O)Cn1cc(Cl)c2ncc(-c3cccc(C(F)(F)F)n3)cc21 [Example 601, 2-[3-Chloro-6-[6-(trifluoromethyl)-2-pyridyl]pyrrolo[3,2-b]pyridin-1-yl]-N,N-dimethyl-acetamide] | 126 nM |
| Cc1cc(-c2cnc3c(Cl)cn(CC(=O)N(C)C)c3c2)sc1Cl [Example 602, 2-[3-Chloro-6-(5-chloro-4-methyl-2-thienyl)pyrrolo[3,2-b]pyridin-1-yl]-N,N-dimethyl-acetamide] | 10 nM |
| CN(C)C(=O)Cn1cc(Cl)c2ncc(-c3ccc(C(F)(F)F)s3)cc21 [Example 603, 2-[3-Chloro-6-[5-(trifluoromethyl)-2-thienyl]pyrrolo[3,2-b]pyridin-1-yl]-N,N-dimethyl-acetamide] | 63.1 nM |
| CN(C)C(=O)Cn1ccc2ncc(-c3cc4ccccc4s3)cc21 [Example 604, 2-[6-(Benzothiophen-2-yl)pyrrolo[3,2-b]pyridin-1-yl]-N,N-dimethyl-acetamide] | 200 nM |
| CN(C)C(=O)Cn1cc(F)c2ncc(-c3ccc(F)c(C(F)(F)F)c3)cc21 [Example 605, 2-[3-Fluoro-6-[4-fluoro-3-(trifluoromethyl)phenyl]pyrrolo[3,2-b]pyridin-1-yl]-N,N-dimethyl-acetamide] | 63.1 nM |

Now from value to compound:

| IC50 | Structure (SMILES) |
| --- | --- |
| 501 nM | CCN(C)C(=O)Cn1cc(C)c2ncc(-c3cccc(C(F)(F)F)c3)cc21 [Example 568, N-Ethyl-N-methyl-2-[3-methyl-6-[3-(trifluoromethyl)phenyl]pyrrolo[3,2-b]pyridin-1-yl]acetamide] |
| 50.1 nM | Cc1cn(CC(=O)N(C)C)c2cc(-c3cc(F)c(F)c(F)c3)cnc12 [Example 571, N,N-Dimethyl-2-[3-methyl-6-(3,4,5-trifluorophenyl)pyrrolo[3,2-b]pyridin-1-yl]acetamide] |
| 79.4 nM | Cc1cccc(-c2cnc3c(C)cn(CC(=O)N(C)C)c3c2)c1 [Example 572, N,N-Dimethyl-2-[3-methyl-6-(m-tolyl)pyrrolo[3,2-b]pyridin-1-yl]acetamide] |
| 126 nM | Cc1csc(-c2cnc3c(C)cn(CC(=O)N(C)C)c3c2)c1 [Example 573, N,N-Dimethyl-2-[3-methyl-6-(4-methyl-2-thienyl)pyrrolo[3,2-b]pyridin-1-yl]acetamide] |
| 100 nM | Cc1cn(CC(=O)N(C)C)c2cc(-c3ccccc3)cnc12 [Example 576, N,N-Dimethyl-2-(3-methyl-6-phenyl-pyrrolo[3,2-b]pyridin-1-yl)acetamide] |
| 200 nM | CCN(C)C(=O)Cn1cc(C)c2ncc(-c3ccccc3)cc21 [Example 577, N-Ethyl-N-methyl-2-(3-methyl-6-phenyl-pyrrolo[3,2-b]pyridin-1-yl)acetamide] |
| 126 nM | Cc1cn(CC(=O)N2CC(F)C2)c2cc(-c3ccccc3)cnc12 [Example 578, 1-(3-Fluoroazetidin-1-yl)-2-(3-methyl-6-phenyl-pyrrolo[3,2-b]pyridin-1-yl)ethanone] |
| 63.1 nM | Cc1cn(CC(=O)N2CC(F)(F)C2)c2cc(-c3ccccc3)cnc12 [Example 579, 1-(3,3-Difluoroazetidin-1-yl)-2-(3-methyl-6-phenyl-pyrrolo[3,2-b]pyridin-1-yl)ethanone] |
| 79.4 nM | Cc1cccc(-c2cnc3c(C)cn(CC(=O)N4CCC4)c3c2)c1 [Example 581, 1-(Azetidin-1-yl)-2-[3-methyl-6-(m-tolyl)pyrrolo[3,2-b]pyridin-1-yl]ethanone] |
| 126 nM | Cc1cn(CC(=O)N(C)C)c2cc(-c3ccc(F)c(F)c3F)cnc12 [Example 583, N,N-Dimethyl-2-[3-methyl-6-(2,3,4-trifluorophenyl)pyrrolo[3,2-b]pyridin-1-yl]acetamide] |
| 398 nM | CCN(C)C(=O)Cn1cc(C)c2ncc(-c3ccc(F)c(F)c3F)cc21 [Example 584, N-Ethyl-N-methyl-2-[3-methyl-6-(2,3,4-trifluorophenyl)pyrrolo[3,2-b]pyridin-1-yl]acetamide] |
| 126 nM | Cc1cn(CC(=O)N(C)C)c2cc(-c3cccc(C(F)(F)F)c3F)cnc12 [Example 586, 2-[6-[2-Fluoro-3-(trifluoromethyl)phenyl]-3-methyl-pyrrolo[3,2-b]pyridin-1-yl]-N,N-dimethyl-acetamide] |
| 251 nM | CCN(C)C(=O)Cn1cc(C)c2ncc(-c3cccc(C(F)(F)F)c3F)cc21 [Example 587, N-Ethyl-2-[6-[2-fluoro-3-(trifluoromethyl)phenyl]-3-methyl-pyrrolo[3,2-b]pyridin-1-yl]-N-methyl-acetamide] |
| 126 nM | Cc1cn(CC(=O)N2CCC2)c2cc(-c3ccccc3F)cnc12 [Example 592, 1-(Azetidin-1-yl)-2-[6-(2-fluorophenyl)-3-methyl-pyrrolo[3,2-b]pyridin-1-yl]ethanone] |
| 251 nM | Cc1cn(CC(=O)N(C)C)c2cc(-c3ccccc3F)cnc12 [Example 593, 2-[6-(2-Fluorophenyl)-3-methyl-pyrrolo[3,2-b]pyridin-1-yl]-N,N-dimethyl-acetamide] |
| 794 nM | CCN(C)C(=O)Cn1cc(C)c2ncc(-c3ccccc3F)cc21 [Example 594, N-Ethyl-2-[6-(2-fluorophenyl)-3-methyl-pyrrolo[3,2-b]pyridin-1-yl]-N-methyl-acetamide] |
| 79.4 nM | CN(C)C(=O)Cn1cc(Cl)c2ncc(-c3cccc(C(F)(F)F)c3)cc21 [Example 600, 2-[3-Chloro-6-[3-(trifluoromethyl)phenyl]pyrrolo[3,2-b]pyridin-1-yl]-N,N-dimethyl-acetamide] |
